Source: patent US20240182442A1, “ANHYDROUS POLYMORPHS OF ANDROGEN RECEPTOR ANTAGONIST, PREPARATION METHOD THEREFOR, AND USE THEREOF” (SUZHOU KINTOR PHARMACEUTICALS, INC., priority 2021, published 2024)

What was measured:
[1] = Heat treatment test under nitrogen protection (crystal transformation); format: physicochemical; conditions: for crystal transformation on heating: nitrogen
Excerpt: At the same time, the above crystal transformation phenomenon can also be confirmed by the absorption/exothermic peaks appearing in FIG. 7 and FIG. 11.

[2] = Suspension competition test of mixed crystalline forms A/B/C/D in saturated solution (thermodynamic transition); format: physicochemical
Protocol: To study the thermodynamic transition relationship of the four anhydrous polymorphs (respectively corresponding to A/B/C/D), samples (each sample was about 5 mg) having crystalline forms A/B/C/D were mixed and added respectively under the conditions of 5° C./room temperature (about 20° C.)/50° C./90° C. to a saturated solution of the compound of formula I (for example, ethanol or methyl tert-butyl ether) (about 1.0 mL), and stirred (magnetic stirring, about 800 rpm). solid was separated (centrifugation, about 10000 rpm, 1 min), and XRPD test was performed.

[3] = Solid-state stability, one week storage, tested by XRPD and HPLC; format: physicochemical; conditions: for Purity (Peak area %) / Relative purity (%/Control): one week; for Purity (Peak area %): HPLC; for Relative purity (%/Control): vs 5° C. sealed control
Excerpt: Samples were removed after one week, and the obtained samples were characterized and tested by XRPD and HPLC to respectively detect changes in crystalline form and purity.

[4] = Dynamic vapor sorption (DVS) hygroscopicity evaluation, with XRPD before and after; format: physicochemical
Protocol: The DVS curves were collected on a DVS Intrinsic Dynamic Moisture Sorption meter from SMS (Surface Measurement Systems). The relative humidity at 25° C. was corrected with the deliquescence points of LiCl, Mg (NO3)2 and KCl.

[5] = Pharmacokinetic study, skin application to SD rats; format: in vivo, SD rats (Sprague-Dawley rats); conditions: for ratio of AUC(0-t) on day 7 to day 1: 12 mg/kg skin application once a day for 7 days
Excerpt: The obtained blood concentration data were simultaneously used to calculate the relevant pharmacokinetic parameters using the pharmacokinetic processing software WinNonlin v5.2 […] for plasma pharmacokinetic characterization analysis.

COc1c(C#N)ccc(N2C(=O)C(C)(C)N(c3ccc(C)nc3)C2=S)c1F [crystalline form B, 4-[4,4-dimethyl-3-(6-methylpyridin-3-yl)-5-oxo-2-thioxoimidazolidin-1-yl]-3-fluoro-2-methoxybenzonitrile]
relative stability of the crystalline form ([1]; under heating conditions): more stable than crystalline forms A/C

COc1c(C#N)ccc(N2C(=O)C(C)(C)N(c3ccc(C)nc3)C2=S)c1F [crystalline form A, 4-[4,4-dimethyl-3-(6-methylpyridin-3-yl)-5-oxo-2-thioxoimidazolidin-1-yl]-3-fluoro-2-methoxybenzonitrile]
crystal transformation by suspension agitation ([2]; less than 90° C.): transformed into the form D | crystal transformation on heating ([1]; heated to about 160° C. and then cooled to room temperature): transformed into crystalline form B

COc1c(C#N)ccc(N2C(=O)C(C)(C)N(c3ccc(C)nc3)C2=S)c1F [crystalline form D, 4-[4,4-dimethyl-3-(6-methylpyridin-3-yl)-5-oxo-2-thioxoimidazolidin-1-yl]-3-fluoro-2-methoxybenzonitrile]
relative stability of the crystalline form ([2]; at room temperature): more stable than the crystalline forms A/B/C | Solid crystalline form after one week ([3]; 5° C., sealed (control)): Crystalline form D | Purity (Peak area %) ([3]; 5° C., sealed (control)): 99.9 Peak area % | Solid crystalline form after one week ([3]; 25° C./60% RH, open): Crystalline form D | Purity (Peak area %) ([3]; 25° C./60% RH, open): 99.9 Peak area % | Relative purity (%/Control) ([3]; 25° C./60% RH, open): 100.0 %/Control | Solid crystalline form after one week ([3]; 40° C./75% RH, open): Crystalline form D | Purity (Peak area %) ([3]; 40° C./75% RH, open): 99.9 Peak area % | Relative purity (%/Control) ([3]; 40° C./75% RH, open): 100.0 %/Control | hygroscopicity (conclusion in words) ([4]; DVS, 0% RH to 80% RH, 25° C.): almost no hygroscopicity | crystalline form before and after the DVS test (XRPD) ([4]; before vs after DVS experiment): maintained the same crystalline form | water absorbed (moisture absorption, DVS) ([4]; relative humidity increased from 0% RH to 80% RH, 25° C.): 0.14 wt % | ratio of AUC(0-t) on day 7 to day 1 ([5]; female SD rats): 0.942 | ratio of AUC(0-t) on day 7 to day 1 ([5]; male SD rats): 1.30 | accumulation after repeated administration ([5]; male and female SD rats, 12 mg/kg skin application, 7 days): no obvious accumulation

COc1c(C#N)ccc(N2C(=O)C(C)(C)N(c3ccc(C)nc3)C2=S)c1F [crystalline form C, 4-[4,4-dimethyl-3-(6-methylpyridin-3-yl)-5-oxo-2-thioxoimidazolidin-1-yl]-3-fluoro-2-methoxybenzonitrile]
crystal transformation on heating ([1]; further heated to about 166° C. and cooled to room temperature): transformed into crystalline form B | crystal transformation on heating ([1]; heated to about 148° C.): transformed into crystalline forms B/D
